Legend:
[1] = molecular target: T1, Gamma-secretase subunit PEN-2 (Homo sapiens, UniProt Q9NZ42); assay: Compound required for inhibition of gamma-secretase-mediated formation of Abeta1-42 polypeptide; format: functional
[2] = molecular target: T1, Gamma-secretase subunit PEN-2; assay: Compound required for inhibition of gamma-secretase-mediated formation of Abeta1-40 polypeptide; format: functional
[3] = molecular target: T1, Gamma-secretase subunit PEN-2; assay: Inhibitory concentration against gamma-secretase was determined

T1 sequence (Q9NZ42 whole entry): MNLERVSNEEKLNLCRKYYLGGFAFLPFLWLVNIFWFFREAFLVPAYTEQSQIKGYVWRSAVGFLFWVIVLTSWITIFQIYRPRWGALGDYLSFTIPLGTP

Compound	ED50 [1] [µM]	ED50 [2] [µM]	IC50 [3] [µM]
CCC(C)[C@H](NC(=O)[C@@H](NC(=O)[C@@H](C[C@@H](O[Si](C)(C)C(C)(C)C)[C@H](C)NC(=O)OC(C)(C)C)[C@@H](C)O[Si](C)(C)C(C)(C)C)C(C)C)C(N)=O (stereo partly specified)	> 10	> 10	
CC(C)C[C@H](NC(=O)/C(=C/C[C@H](Cc1ccccc1)NC(=O)OC(C)(C)C)Cc1ccccc1)C(=O)N[C@@H](Cc1ccccc1)C(N)=O	> 10	> 10	
CC(C)C[C@H](NC(=O)[C@H](CN)C[C@@H](O)[C@H](Cc1ccccc1)NC(=O)OC(C)(C)C)C(=O)N[C@@H](Cc1ccccc1)C(N)=O	> 10	> 10	
CCC(C)C(C[C@@H](O[Si](C)(C)C(C)(C)C)[C@@H](NC(=O)OC(C)(C)C)C(C)C)C(=O)N[C@@H](C)C(=O)N[C@H](C(N)=O)C(C)O (stereo partly specified)	> 10	> 10	
CCC(C)[C@H](NC(=O)[C@@H](NC(=O)[C@H](C[C@@H](O[Si](C)(C)C(C)(C)C)[C@H](C)NC(=O)OC(C)(C)C)C(C)O[Si](C)(C)C(C)(C)C)C(C)C)C(N)=O (stereo partly specified)	> 10	> 10	
CCC(C)[C@H](NC(=O)[C@@H](NC(=O)[C@@H](C[C@@H](O[Si](C)(C)C(C)(C)C)[C@H](C)NC(=O)OC(C)(C)C)[C@H](C)O[Si](C)(C)C(C)(C)C)C(C)C)C(N)=O (stereo partly specified)	> 10	> 10	
CC(C)C[C@H](NC(=O)[C@H](Cc1ccccc1)C[C@@H](O)[C@H](Cc1ccccc1)NC(=O)OC(C)(C)C)C(=O)N[C@@H](Cc1ccccc1)C(N)=O	0.014	0.036	0.3
CC(NC(=O)[C@H](Cc1ccccc1)C[C@@H](O)[C@H](Cc1ccccc1)NC(=O)OC(C)(C)C)C(=O)N[C@H](C(N)=O)[C@H](C)O (single isomer, unassigned)	230	732	
CC(C)C[C@H](NC(=O)C(CC[C@H](Cc1ccccc1)NC(=O)OC(C)(C)C)Cc1ccccc1)C(=O)N[C@@H](Cc1ccccc1)C(N)=O (stereo partly specified)	> 10	> 10	
CC[C@H](C)[C@H](NC(=O)[C@@H](NC(=O)[C@H](Cc1ccccc1)C[C@@H](O)[C@H](Cc1ccccc1)NC(=O)OC(C)(C)C)C(C)C)C(N)=O	35	32	
